Columns and labels:
[1] = biological target: recombinant human 11β-HSD type 1 enzyme (Homo sapiens, UniProt P28845); test: 11β-HSD type 1 enzyme assay (NADPH fluorescence); format: biochemical; conditions: three hour incubation at room temperature
Method: 11β-HSD Type 1 Enzyme Assay Human 11β-HSD type 1 activity is measured by assaying NADPH production by fluorescence assay. Solid compounds are dissolved in DMSO to a concentration of 10 mM. Twenty microliters of each are then transferred to a column of a 96-well polypropylene Nunc plate where they are further diluted 50-fold followed by subsequent two-fold titration, ten times across the plate with additional DMSO using a Tecan Genesis 200 automated system. Plates are then transferred to a Tecan Freedom 200 system with an attached Tecan Temo 96-well head and an Ultra 384 plate reader. Reagents are supplied in 96-well polypropylene Nunc plates and are dispensed individually into black 96-well Molecular Devices High Efficiency assay plates (40 μL/well capacity) in the following fashion: 9 μL/well of substrate (2.22 mM NADP, 55.5 μM […], 10 mM Tris, 0.25% Prionex, 0.1% Triton X100), 3 μL/well of water to compound wells or 3 μL to control and standard wells, 6 μL/well recombinant human 11β-HSD type 1 enzyme, 2 μL/well of compound dilutions. For ultimate calculation of percent inhibition, a series of wells are added that represent assay minimum and maximum: one set containing substrate with 667 μM carbenoxolone (background), and another set containing substrate and enzyme without compound (maximum signal). Final DMSO concentration is 0.5% for all compounds, controls and standards. Plates are then placed on a shaker by the robotic arm of the Tecan for 15 seconds before being covered and stacked for a three hour incubation period at room temperature. Upon completion of this incubation, the Tecan robotic arm removes each plate individually from the stacker and places them in position for addition of 5 μL/well of a 250 μM carbenoxolone solution to stop the enzymatic reaction. Plates are then shaken once more for 15 seconds then placed into an Ultra 384 microplate reader (355EX/460EM) for detection of NADPH fluorescence.

[2] = test system: cortisone to cortisol conversion (11β-HSD type 1); test: Acute In Vivo Cortisone Conversion Assay; conditions: mice dosed orally, subcutaneous cortisone challenge 30 mg/kg, serum cortisol by LC-MS/MS
Method: Acute In Vivo Cortisone Conversion Assay
In general, compounds are dosed orally into mice, the mice are challenged with a subcutaneous injection of cortisone at a set timepoint after compound injection, and the blood of each animal is collected some time later. Separated serum is then isolated and analyzed for levels of cortisone and cortisol by LC-MS/MS, followed by calculation of mean cortisol and percent inhibition of each dosing group. Specifically, male C57BL/6 mice are obtained from Harlan Sprague Dawley at average weight of 25 grams. Exact weights are taken upon arrival and the mice randomized into groups of similar weights. Compounds are prepared in 1% w-w HEC, 0.25% w-w polysorbate 80, 0.05% w-w Dow Coming antifoam #1510-US at various doses based on assumed average weight of 25 grams. Compounds are dosed orally, 200 μl per animal, followed by a subcutaneous dose, 200 μl per animal, of 30 mg/kg cortisone at 1 to 24 hours post compound dose. At 10 minutes post cortisone challenge, each animal is euthanized for 1 minute in a CO2 chamber, followed by blood collection via cardiac puncture into serum separator tubes. Once fully clotted, tubes are spun at 2500×g, 4° C. for 15 minutes, the serum transferred to wells of 96-well plates (Coming Inc, Costar #4410, cluster tubes, 1.2 ml, polypropylene), and the plates are frozen at −20° C. until analysis by LC-MS/MS. For analysis, serum samples are thawed and the proteins are precipitated by the addition of acetonitrile containing d4-cortisol internal standard. Samples are vortex mixed and centrifuged. The supernatant is removed and dried under a stream of warm nitrogen. Extracts are reconstituted in methanol/water (1:1) and injected onto the LC-MS/MS system. The levels of cortisone and cortisol are assayed by selective reaction monitoring mode following positive ACPI ionization on a triple quadrupole mass spectrophotometer. […] Examples 91, 135, 119, 15, and 99 were active in the Acute In Vivo Cortisone Conversion Assay.

Chain of recombinant human 11β-HSD type 1 enzyme (P28845 whole entry): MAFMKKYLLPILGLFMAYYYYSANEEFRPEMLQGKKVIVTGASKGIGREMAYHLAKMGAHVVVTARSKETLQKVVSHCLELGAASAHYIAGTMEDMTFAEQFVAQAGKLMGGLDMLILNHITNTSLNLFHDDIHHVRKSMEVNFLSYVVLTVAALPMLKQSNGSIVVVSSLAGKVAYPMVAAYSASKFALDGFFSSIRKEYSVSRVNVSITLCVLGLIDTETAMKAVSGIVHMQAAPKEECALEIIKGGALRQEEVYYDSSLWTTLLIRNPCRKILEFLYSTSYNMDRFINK

Row | IC50 [1] [nM] | SMILES | activity in the Acute In Vivo Cortisone Conversion Assay [2]
1 | 384 | O=C1C(Cc2ccc(-c3ccncc3)cc2Cl)CCN1C1CCCCC1 (centres unmarked) | –
2 | 565 | CC1CCCCC1N1CCC(Cc2c(Cl)cc(-c3ccncc3)cc2Cl)C1=O (centres unmarked) | –
3 | 378 | O=C1C(Cc2ccc(Cl)cc2Cl)CCN1C1CCC(O)CC1 (centres unmarked) | –
4 | 494 | O=C1C(Cc2ccc(-c3cccnc3)cc2Cl)CCCN1C1CCCCC1 (centres unmarked) | –
5 | 879 | O=C1C(Cc2c(F)cccc2Cl)CCCN1C1CCCCC1 (centres unmarked) | –
6 | – | O=C1C(Cc2ccc(Cl)cc2Cl)CCN1[C@H]1CC[C@H](O)CC1 (relative stereo) [Example 15, 3-(2,4-Dichloro-benzyl)-1-(trans-4-hydroxy-cyclohexyl)-pyrrolidin-2-one] | active
7 | – | CC1CCCCC1N1CCC(Cc2c(F)cccc2Cl)C1=O (centres unmarked) [Example 65] | inactive
8 | – | COc1ccc(Cl)c(CC2CCN(C3CCCCC3)C2=O)c1Cl (centres unmarked) [Example 69] | inactive
9 | – | Cl.O=C1C(Cc2ccc(-c3ccncc3)cc2Cl)CCN1C1CCCCC1 (centres unmarked) [Example 91] | active
10 | – | CC1CCCCC1N1CCC(Cc2ccc(-c3cccnc3)cc2Cl)C1=O (centres unmarked) [Example 99] | active
11 | – | CC1CCCCC1N1CCC(Cc2c(Cl)cc(-c3ccncc3)cc2Cl)C1=O.Cl (centres unmarked) [Example 119] | active
12 | – | O=C1C(Cc2c(Cl)cc(Cl)cc2Cl)CCN1C1CCC(O)CC1 (centres unmarked) [Example 135] | active
13 | 230 | O=C1C(Cc2c(Cl)cc(Cl)cc2Cl)CCN1C1CCC(O)CC1 (centres unmarked) [drawing 379] | –
14 | 273 | CC1CCCCC1N1CCC(Cc2ccc(-c3cccnc3)cc2Cl)C1=O (centres unmarked) [drawing 383] | –

From US7713979B2, “Cycloalkyl lactam derivatives as inhibitors of 11-beta-hydroxysteroid dehydrogenase 1” (Eli Lilly and Company, priority 2004, dated 2010)
